The source of these data is US20250387388A1, “COMPOUND AS TRK INHIBITOR AND/OR RET INHIBITOR AND USE THEREOF” (Medinno Pharmaceutical Technology (Zhuhai) Co., Ltd., priority 2022, published 2025).

The subject of experiment [1] is external hemorrhoids in rats. The experiment is described as follows: External hemorrhoid model in rats (acetic acid). The class given is in vivo, SD rats. From the text: • (1) Blank control group (7 rats) • (2) Hemorrhoid model group (10 rats) • (3) Hemorrhoid model group+positive control drug (Mayinglong Hemorrhoid Ointment) group (8 rats) • (4) Hemorrhoid model group+vehicle treatment (Gel excipient) (8 rats) • (5) Hemorrhoids model group+0.1% MDI-1228 gel preparation group (8 rats) • (6) Hemorrhoids model group+0.3% MDI-1228 gel preparation group (8 rats) • (7) Hemorrhoids model group+1% MDI-1228 gel preparation group (8 rats) • (8) Hemorrhoids model group+3% MDI-1228 gel preparation group (8 rats) • Experimental environment: Temperature 20° C.-26° C., humidity 40%-70%
Apart from the normal control group, all groups were treated by first disinfecting the perianal skin. A 75% acetic acid solution was prepared and injected subcutaneously in a scattered pattern around the anus of each rat at a dose of 0.05 ml.
The recipe and preparation method for 1% MDI-1228 gel were as follows:
The control group and model group received no treatment (no therapy). Administration begined 24 hours after the model induction was successful. Group 3) was administrated with Mayinglong Hemorrhoid Ointment (7.5 g/Kg), three times, 10 min each time; Group 4) was administrated with a blank gel forming agent (1 g/Kg) around the anus; Groups 5)-8) were administrated with different concentrations of MDI-1228 compound gel preparation (1 g/Kg) around the anus, twice daily, 10 min each time, followed by covering with plastic wrap and fixing with tape to prevent the drug from falling off and affecting efficacy. After 6 hours, the dressing was removed, and the application site was cleaned with normal saline. The administration was continued for 11 days.
Observe the healing of the ulcer site on days 3, 5, 7, 9, and 11 of administration, and assess the ulcer score (scoring criteria: ulcer exudate present=1 point; minimal ulcer exudate=2 points; scab present, nearly healed=3 points; completely healed=4 points).
On an 11-day administration, animals were euthanized by inhalation of excess carbon dioxide, and perianal rectal tissue was taken for HE staining, and serum was taken for ELISA detection.
Tissue samples from animal Rectal were excised, fixed in 10% neutral formalin buffer solution, dehydrated, embedded in paraffin, and sectioned and HE stained for observation of rectal histopathological morphology changes. The reagents and instruments required for HE staining included: Hematoxylin staining solution (AR11800-1, BOSTER); Eosin staining solution (AR11800-2, BOSTER); Ultra-clean advanced mounting medium (YZB, BASO); Scott's blueing solution (G1865, Solarbio), etc. Medication refrigerator (BYC-310, Shandong Bokai Biotech); Microscope (CX41 OLYMPUS); Microtome (BQ-318D, Berne); Electric heating blast drying oven (DHG-9070A, Hengke Scientific Instrument Co., Ltd.). The taken tissue was rinsed with running water for several hours, dehydrated through a series of ethanol solutions (70%, 80%, 90%), and then treated with a mixture of pure alcohol and xylene at a ratio of 1:1 for 15 minutes, followed by xylene I for 15 minutes and xylene II for 15 minutes (until transparent). The tissue was then placed in a mixture of xylene and paraffin at a ratio of 1:1 for 15 minutes, followed by immersion with paraffin I and paraffin 11 each for 50-60 minutes. The tissue was embedded in paraffin and sectioned, and the sections were dried, dewaxed and hydrated in distilled water. […]

A further experiment concerns alopecia areata in mice. The experiment is described as follows: Alopecia areata model in mice (imiquimod). The class given is in vivo, C3H/HeJ mice. The procedure:
• Blank control group (no treatment) (N=5) • Blank alopecia areata model group (no treatment) (N=8) • Alopecia areata model+blank excipient group (vehicle treatment: blank gel preparation, dose: 1.5 g/kg per mouse, twice daily per mouse) (N=8) • Alopecia areata model+positive control drug group (compound Betamethasone cream (corticosteroid), twice daily, 50 mg each time per mouse) (N=8) • Alopecia areata model+0.5% MDI-1228 compound gel preparation group (dose: 1.0 g/kg per mouse, twice daily per mouse) (N=8) • Alopecia areata model+1% MDI-1228 compound gel preparation group (dose: 1.5 g/kg per mouse, twice daily per mouse) (N=8) • Alopecia areata model+3% MDI-1228 compound gel preparation group (dose: 1.5 g/kg per mouse, twice daily) (N=8) • Blank alopecia areata model (vehicle treatment: 5% DMSO+75% PEG300+20% EtOH) (N=8)
Modeling: Imiquimod cream was applied to the nape of the animals (no hair removal required), three times a week for three consecutive weeks. The control group was treated with a blank excipient without imiquimod. Each time, a clean medical cotton swab was used to apply approximately 0.03 g of imiquimod evenly over an area of about 1 cm×1 cm, and the application site was cleaned with normal saline before each application. The operation was performed gently to avoid skin abrasions or mechanical hair loss due to friction. […] During the modeling, the hair loss of the mice was recorded.
The blank control group (untreated) received no treatment; the drug groups were treated with the corresponding doses of compound betamethasone cream, blank gel preparation, and MDI-1228 compound gel preparation applied to the skin, twice daily (at 9 AM and 5 PM, with an interval of at least 6 hours). Note: To prevent animals from licking the medication off each other, after the gel was applied, the animals were placed individually in a pad-free independent cage to move around for a period of time to allow the gel to air dry for 1 hour before being returned to the normal feeding cage. Single housing is discouraged as it can lead to depression; wrapping the application area with gauze is also prohibited as it can absorb the medication.
During the treatment period, the local changes in the hair loss area of the mice were observed, and the hair growth and adverse reactions were recorded in detail, and scores were assigned according to the following table.
The reagents and instruments required for HE staining included: Hematoxylin staining solution (AR11800-1, BOSTER); Eosin staining solution (AR11800-2, BOSTER); Ultra-clean advanced mounting medium (YZB, BASO); Scott's blueing solution (G1865, Solarbio), etc. Medication refrigerator (BYC-310, Shandong Bokai Biotech); Microscope (CX41 OLYMPUS); Microtome (BQ-318D, Berne); Electric heating blast drying oven (DHG-9070A, Hengke Scientific Instrument Co., Ltd.). The taken tissue was rinsed with running water for several hours, dehydrated through a series of ethanol solutions (70%, 80%, 90%), and then treated with a mixture of pure alcohol and xylene at a ratio of 1:1 for 15 minutes, followed by xylene I for 15 minutes and xylene II for 15 minutes until transparent. The tissue was then placed in a mixture of xylene and paraffin at a ratio of 1:1 for 15 minutes, followed by immersion with paraffin I and paraffin II each for 50-60 minutes. The tissue was embedded in paraffin and sectioned.

For the compound `CCc1cc(O)c(F)cc1-c1ccc2c(-c3nc4c([nH]3)CN(C(=O)N3CC[C@H](O)C3)C4)n[nH]c2c1` [MDI-1228, (S)-(2-(6-(2-ethyl-5-fluoro-4-hydroxyphenyl)-1H-indazol-3-yl)-4,6-dihydropyrrolo[3,4-d]imidazol-5-(1H)-yl)(3-hydroxylpyrrolidin-1-yl)ketone], the “TNF-α expression in blood (ELISA)” value in experiment [1] (0.1%, 0.3%, 1%, 3% MDI-1228 gel, positive control drug, vs. model group) is “could all downregulate the expression of TNF-α”. The “Perianal ulcer healing score” value in experiment [1] (1% MDI-1228 gel 1 g/Kg twice daily, vs. model group) is given as “significant therapeutic effect after a 7-days administration”. Moreover, the “Perianal rectal tissue HE staining pathological score” value in experiment [1] (3% MDI-1228 gel) was “the best effect”; in experiment [1] (MDI-1228 gel at concentrations of 0.3% or more), “more significant”. Also, in experiment [1] (MDI-1228 gel preparations at different concentrations), the “Alleviation and treatment of external hemorrhoids” value is “can effectively alleviate and treat external hemorrhoids in rats”. Also, the “Skin HE staining (hair follicles)” value with alopecia areata in mice (0.5%, 1%, 3% MDI-1228 gel) was “some therapeutic effect”. The “Area under the curve (AUC) of hair growth scores” value in the experiment with alopecia areata in mice (0.5%, 1%, 3% MDI-1228 gel twice daily, vs. blank gel group) is listed as “significantly promoted hair growth in alopecia areata animals”. In addition, the “Hair growth scores after 21 days” value is “the best effect” in the experiment on alopecia areata in mice (3% MDI-1228 gel) and “significantly higher than the model group” in the experiment on alopecia areata in mice (all MDI-1228 treatment groups (0.5%, 1%, 3% gel), vs. model group). The “Symptoms of alopecia areata (conclusion)” value with alopecia areata in mice (mouse, in vivo) was “can improve the symptoms of alopecia areata in mice to a certain extent”.
